Test results reported in the NIST ThermoML archive (doi:10.1016/j.jct.2012.08.010).
± gives the expanded uncertainty stated by the source.

Test: refractive index (Na D-line) (dimensionless); φn = volume fraction of the nth substance listed
Conditions: 101 kPa, Liquid, Standard Abbe refractometry

C=C[Si]1(C)O[Si](C)(C=C)O[Si](C)(C=C)O[Si](C)(C=C)O1 (stereo not given) [2,4,6,8-tetramethyl-2,4,6,8-tetravinylcycloterasiloxane] + Cc1cccc(C)c1
Conditions | refractive index
288.15 K, φ1 = 0.1301 | 1.4916 ± 0.0003
288.15 K, φ1 = 0.2524 | 1.48392 ± 0.00031
288.15 K, φ1 = 0.3347 | 1.47877 ± 0.00031
288.15 K, φ1 = 0.4159 | 1.47367 ± 0.00031
288.15 K, φ1 = 0.4865 | 1.46917 ± 0.00032
288.15 K, φ1 = 0.5517 | 1.46505 ± 0.00032
288.15 K, φ1 = 0.5985 | 1.46211 ± 0.00032
288.15 K, φ1 = 0.653 | 1.45885 ± 0.00032
288.15 K, φ1 = 0.6984 | 1.45591 ± 0.00032
288.15 K, φ1 = 0.7389 | 1.45344 ± 0.00032
288.15 K, φ1 = 0.776 | 1.45106 ± 0.00032
288.15 K, φ1 = 0.8087 | 1.44894 ± 0.00032
288.15 K, φ1 = 0.8405 | 1.44691 ± 0.00032
288.15 K, φ1 = 0.866 | 1.44524 ± 0.00032
288.15 K, φ1 = 0.8941 | 1.44346 ± 0.00032
288.15 K, φ1 = 0.9183 | 1.44189 ± 0.00032
288.15 K, φ1 = 0.941 | 1.44046 ± 0.00032
288.15 K, φ1 = 0.9804 | 1.43797 ± 0.00033
288.15 K, φ1 = 1 | 1.43674 ± 0.00033
298.15 K, φ1 = 0.1302 | 1.48641 ± 0.00031
298.15 K, φ1 = 0.2525 | 1.4788 ± 0.0003
298.15 K, φ1 = 0.3347 | 1.47372 ± 0.00031
298.15 K, φ1 = 0.416 | 1.46865 ± 0.00031
298.15 K, φ1 = 0.4866 | 1.46426 ± 0.00032
298.15 K, φ1 = 0.5518 | 1.46017 ± 0.00032
298.15 K, φ1 = 0.5986 | 1.45726 ± 0.00032
298.15 K, φ1 = 0.6531 | 1.454 ± 0.001
298.15 K, φ1 = 0.6984 | 1.45105 ± 0.00032
298.15 K, φ1 = 0.7389 | 1.44845 ± 0.00032
298.15 K, φ1 = 0.7761 | 1.4461 ± 0.0003
298.15 K, φ1 = 0.8087 | 1.44408 ± 0.00032
298.15 K, φ1 = 0.8405 | 1.44212 ± 0.00032
298.15 K, φ1 = 0.866 | 1.44048 ± 0.00032
298.15 K, φ1 = 0.8941 | 1.4387 ± 0.0003
298.15 K, φ1 = 0.9183 | 1.43717 ± 0.00032
298.15 K, φ1 = 0.941 | 1.43574 ± 0.00032
298.15 K, φ1 = 0.9804 | 1.43324 ± 0.00033
298.15 K, φ1 = 1 | 1.43202 ± 0.00033
308.15 K, φ1 = 0.1302 | 1.48109 ± 0.00031
308.15 K, φ1 = 0.2525 | 1.47359 ± 0.00031
308.15 K, φ1 = 0.3348 | 1.46856 ± 0.00031
308.15 K, φ1 = 0.4161 | 1.46354 ± 0.00031
308.15 K, φ1 = 0.4867 | 1.45917 ± 0.00032
308.15 K, φ1 = 0.5519 | 1.45513 ± 0.00032
308.15 K, φ1 = 0.5987 | 1.45223 ± 0.00032
308.15 K, φ1 = 0.6532 | 1.44903 ± 0.00032
308.15 K, φ1 = 0.6985 | 1.4461 ± 0.0003
308.15 K, φ1 = 0.739 | 1.44355 ± 0.00032
308.15 K, φ1 = 0.7761 | 1.44125 ± 0.00032
308.15 K, φ1 = 0.8088 | 1.43919 ± 0.00032
308.15 K, φ1 = 0.8406 | 1.43727 ± 0.00032
308.15 K, φ1 = 0.8661 | 1.43566 ± 0.00032
308.15 K, φ1 = 0.8942 | 1.43391 ± 0.00032
308.15 K, φ1 = 0.9183 | 1.4324 ± 0.0003
308.15 K, φ1 = 0.941 | 1.43098 ± 0.00032
308.15 K, φ1 = 0.9804 | 1.4285 ± 0.0003
308.15 K, φ1 = 1 | 1.4273 ± 0.0003
318.15 K, φ1 = 0.1303 | 1.47582 ± 0.00031
318.15 K, φ1 = 0.2526 | 1.46841 ± 0.00031
318.15 K, φ1 = 0.3349 | 1.46342 ± 0.00031
318.15 K, φ1 = 0.4162 | 1.45843 ± 0.00031
318.15 K, φ1 = 0.4867 | 1.45413 ± 0.00032
318.15 K, φ1 = 0.5519 | 1.45015 ± 0.00032
318.15 K, φ1 = 0.5988 | 1.44727 ± 0.00032
318.15 K, φ1 = 0.6533 | 1.44383 ± 0.00032
318.15 K, φ1 = 0.6986 | 1.44117 ± 0.00032
318.15 K, φ1 = 0.7391 | 1.43865 ± 0.00032
318.15 K, φ1 = 0.7762 | 1.43639 ± 0.00032
318.15 K, φ1 = 0.8088 | 1.43434 ± 0.00032
318.15 K, φ1 = 0.8406 | 1.43244 ± 0.00032
318.15 K, φ1 = 0.8661 | 1.43085 ± 0.00032
318.15 K, φ1 = 0.8942 | 1.42911 ± 0.00032
318.15 K, φ1 = 0.9184 | 1.42763 ± 0.00032
318.15 K, φ1 = 0.9411 | 1.42622 ± 0.00032
318.15 K, φ1 = 0.9804 | 1.42377 ± 0.00033
318.15 K, φ1 = 1 | 1.42257 ± 0.00033
328.15 K, φ1 = 0.1303 | 1.47053 ± 0.00031
328.15 K, φ1 = 0.2526 | 1.46321 ± 0.00031
328.15 K, φ1 = 0.335 | 1.45825 ± 0.00031
328.15 K, φ1 = 0.4163 | 1.45333 ± 0.00031
328.15 K, φ1 = 0.4868 | 1.44908 ± 0.00032
328.15 K, φ1 = 0.552 | 1.44511 ± 0.00032
328.15 K, φ1 = 0.5988 | 1.44229 ± 0.00032
328.15 K, φ1 = 0.6533 | 1.43851 ± 0.00032
328.15 K, φ1 = 0.6986 | 1.43604 ± 0.00032
328.15 K, φ1 = 0.7391 | 1.43374 ± 0.00032
328.15 K, φ1 = 0.7762 | 1.43152 ± 0.00032
328.15 K, φ1 = 0.8089 | 1.42952 ± 0.00032
328.15 K, φ1 = 0.8407 | 1.42761 ± 0.00032
328.15 K, φ1 = 0.8661 | 1.42604 ± 0.00032
328.15 K, φ1 = 0.8942 | 1.42434 ± 0.00032
328.15 K, φ1 = 0.9184 | 1.42285 ± 0.00032
328.15 K, φ1 = 0.9411 | 1.42145 ± 0.00032
328.15 K, φ1 = 0.9804 | 1.41904 ± 0.00033
328.15 K, φ1 = 1 | 1.41785 ± 0.00033

C=C[Si]1(C)O[Si](C)(C=C)O[Si](C)(C=C)O[Si](C)(C=C)O1 (stereo not given) [2,4,6,8-tetramethyl-2,4,6,8-tetravinylcycloterasiloxane] + CCc1ccccc1
refractive index
Conditions | 288.15 K | 298.15 K | 308.15 K | 318.15 K | 328.15 K
φ1 = 0.1306 | 1.49051 ± 0.00031 | – | – | – | –
φ1 = 0.1307 | – | 1.48523 ± 0.00031 | 1.47983 ± 0.00031 | 1.47444 ± 0.00031 | 1.46899 ± 0.00031
φ1 = 0.2495 | 1.48332 ± 0.00031 | 1.47811 ± 0.00031 | – | – | –
φ1 = 0.2496 | – | – | 1.47276 ± 0.00031 | 1.46745 ± 0.00031 | 1.46201 ± 0.00031
φ1 = 0.3353 | 1.47811 ± 0.00031 | 1.47292 ± 0.00031 | – | – | –
φ1 = 0.3354 | – | – | 1.46765 ± 0.00031 | 1.46234 ± 0.00031 | 1.45699 ± 0.00031
φ1 = 0.4168 | 1.47313 ± 0.00031 | 1.46801 ± 0.00031 | 1.46276 ± 0.00031 | – | –
φ1 = 0.4169 | – | – | – | 1.45752 ± 0.00031 | 1.45223 ± 0.00031
φ1 = 0.4874 | 1.46879 ± 0.00032 | – | – | – | –
φ1 = 0.4875 | – | 1.4637 ± 0.0003 | 1.45851 ± 0.00032 | 1.45331 ± 0.00032 | 1.44807 ± 0.00032
φ1 = 0.5524 | 1.46478 ± 0.00032 | – | – | – | –
φ1 = 0.5525 | – | 1.45974 ± 0.00032 | 1.4546 ± 0.0003 | 1.44944 ± 0.00032 | 1.44422 ± 0.00032
φ1 = 0.5993 | 1.46188 ± 0.00032 | – | – | – | –
φ1 = 0.5994 | – | 1.45688 ± 0.00032 | 1.4518 ± 0.0003 | 1.4467 ± 0.0003 | 1.44159 ± 0.00032
φ1 = 0.6539 | 1.45851 ± 0.00032 | – | – | – | –
φ1 = 0.654 | – | 1.45353 ± 0.00032 | 1.44849 ± 0.00032 | 1.44344 ± 0.00032 | 1.43836 ± 0.00032
φ1 = 0.699 | 1.4557 ± 0.0003 | 1.45075 ± 0.00032 | – | – | –
φ1 = 0.6991 | – | – | 1.44574 ± 0.00032 | 1.44073 ± 0.00032 | 1.43564 ± 0.00032
φ1 = 0.7394 | 1.4532 ± 0.0003 | 1.44826 ± 0.00032 | – | – | –
φ1 = 0.7395 | – | – | 1.44331 ± 0.00032 | 1.43832 ± 0.00032 | 1.4333 ± 0.0003
φ1 = 0.7767 | 1.45085 ± 0.00032 | 1.44594 ± 0.00032 | 1.44103 ± 0.00032 | – | –
φ1 = 0.7768 | – | – | – | 1.43607 ± 0.00032 | 1.43112 ± 0.00032
φ1 = 0.809 | 1.44885 ± 0.00032 | 1.44397 ± 0.00032 | 1.43906 ± 0.00032 | – | –
φ1 = 0.8091 | – | – | – | 1.43412 ± 0.00032 | 1.4292 ± 0.0003
φ1 = 0.8409 | 1.44681 ± 0.00032 | 1.44197 ± 0.00032 | – | – | –
φ1 = 0.841 | – | – | 1.43711 ± 0.00032 | 1.43222 ± 0.00032 | 1.42729 ± 0.00032
φ1 = 0.8663 | 1.44522 ± 0.00032 | 1.44039 ± 0.00032 | 1.43554 ± 0.00032 | 1.43067 ± 0.00032 | 1.42578 ± 0.00032
φ1 = 0.8945 | 1.44344 ± 0.00032 | 1.43862 ± 0.00032 | – | – | –
φ1 = 0.8946 | – | – | 1.43382 ± 0.00032 | 1.42898 ± 0.00032 | 1.42413 ± 0.00032
φ1 = 0.9191 | 1.44188 ± 0.00032 | 1.43709 ± 0.00032 | 1.4323 ± 0.0003 | 1.42747 ± 0.00032 | 1.42266 ± 0.00032
φ1 = 0.9412 | 1.44049 ± 0.00032 | 1.4357 ± 0.0003 | 1.43092 ± 0.00032 | 1.42613 ± 0.00032 | 1.42133 ± 0.00032
φ1 = 0.9806 | 1.43796 ± 0.00033 | 1.43323 ± 0.00033 | 1.42848 ± 0.00033 | 1.42373 ± 0.00033 | 1.41899 ± 0.00033
φ1 = 1 | 1.43674 ± 0.00033 | 1.43202 ± 0.00033 | 1.4273 ± 0.0003 | 1.42257 ± 0.00033 | 1.41785 ± 0.00033
